What was measured:
[1] = Protection against hypoxia (mouse), survival in atmosphere of progressively decreasing oxygen; format: in vivo, mouse (male, NMRI strain); conditions: for minimal effective dose: Mus musculus, po, read-out: 1st effective dose (increases survival of animals deprived of oxygen, from this dose upwards); for Number of surviving animals, treated: survivors/treated
Source text: I. Protection against hypoxia (mouse)
a. Principle (C. GIURGEA and F. MOURAVIEFF-LESUISSE; Proc. Xth Intern. Congr. of the Coll. Intern. Neuro-psych.-Pergamon Press, Oxford and New York, 1978, p. 1623-1631).
Due to the particular sensitivity of the nervous system to this type of aggression, the results obtained in this test can be interpreted as a measure of the resistance of the central nervous system. Compounds which increase the resistance of the animals to this stress are suitable for the treatment and prevention of hypoxic type aggressions of the central nervous system.
The apparatus consists of an airtight transparent cage 37 cm high, 39 cm deep and 97 cm wide. This 140 liter cage is provided with 60 transparent compartments each 6×10×10 cm, making it possible to separately accomodate 60 mice.
A fan ensures circulation of the atmosphere between the compartments through a grid floor. The cage is equipped with a device for introducing nitrogen at a constant flow rate, and with an orifice communicating with the ambient atmosphere. Male mice (NMRI strain) weighing 20 to 22 g, are kept fasting as from the day before the test. The experiment is effected on the following day, simultaneously on 3 groups of 20 mice; a control group is given water (25 ml/kg) orally, and the other two groups are each given orally a compound to be tested.
25 minutes after the administration, the animals are distributed at random amongst the compartments so that none of the three groups is concentrated in a preferred area of the cage.
30 minutes after administration, the cage is closed and nitrogen is admitted into it at a constant flow rate (7.75 liters of technical grade nitrogen per minute) for about 37 minutes, at which stage the atmosphere contains 3.7% oxygen.
The cage is left closed until the critical moment where no more than 3 survivors are observed among the 20 control animals. At that moment, the cage is opened and atmospheric air admitted into it. A few moments later the survivors in each group of animals are counted.
For each dose of compound to be tested, the experiments are repeated once or twice, and the results pooled to obtain a minimum of 40 (or 60) animals treated per dose and 40 (or 60) corresponding control animals.
For each dose of compound tested, the number of surviving animals among those treated with the compound is compared with the number of surviving animals among the control animals. The difference between these numbers expresses the protective activity of the compound against hypoxia caused by oxygen deprivation. The statistical significance (P) of this difference is evaluated by the Fischer-Yates test.

[2] = Protection against cerebral ischemia (rats), survival after ligature of the 2 common carotids; format: in vivo, rat (male Wistar); conditions: for lowest active dose (protects against lethality induced by simultaneous ligature of the two carotids, from this dose upwards): intraperitoneal; for Number of surviving animals, treated: survivors/treated, 24 hours
Protocol: II. Protection against cerebral ischemia (rats)
a. Principle (C. GIURGEA and F. MOURAVIEFF-LESUISSE; see above under Ia.
Electroencephalographic controls have shown that the ligature of the 2 common carotids in the rat causes a true cerebral ischemia: the electroencephalogram trace flattens and even becomes isoelectric (electric silence).
Male Wistar rats weighing between 250 and 350 g are anesthetized with pentobarbital administered intraperitoneally at a dose of 50 mg/kg (0.5 ml/100 g).
Immediately after the anesthesia, the animals are administered intraperitoneally with an amount of 0.5 ml/100 g, either the compound to be tested dissolved in an isotonic sodium chloride solution (treated animals), or only an isotonic sodium chloride solution or placebo (control animals). About 20 minutes later, the 2 common carotids are exposed and about 10 minutes later ligatured simultaneously. This operation is effected simultaneously on the control animals and the treated animals.
An hour after administration of the compound to be tested or of the placebo, there is again administered intraperitoneally the same dose of either the compound to be tested (to the treated animals) or the placebo (to the control animals).
5 hours after the first administration, there is administered for the third time the same dose of either the compound to be tested (to the surviving treated animals) or the placebo (to the surviving control animals). 24 hours after the first administration the efficacy of the ligature is verified in all animals, under pentobarbital anesthesia, by section of the carotids downstream of the ligature. The number of surviving animals is recorded among both the treated animals and the control animals. For each dose of compound tested, the number of surviving animals among those treated with the compound is compared with the number of surviving animals among the control animals. The difference expresses the protective activity of the compound against the lethality induced by the simultaneous ligature of the 2 carotids. The statistical significance (P) of this difference is evaluated by the Brandt-Snedecor test.

[3] = Toxicity, LD50 after intravenous administration, mouse; conditions: in vivo, male mouse
Source text: (§1) Table III below gives, for compounds A and B, the LD50, in mg/kg, determined on the male mouse and the male rat after intravenous administration: […]

[4] = Toxicity, LD50 after intravenous administration, rat; conditions: in vivo, male rat
Source text: as §1

male mouse and male rat = test: Toxicity, conclusion from LD50 in mouse and rat; format: in vivo; conditions: for toxicity: intravenous, mouse and rat
Source text: as §1

[5] = Pharmazie, 37/11, (1982), 753-765; cited from earlier work
[6] = intraperitoneal dose 0.32 mmol/kg

| Compound | minimal effective dose [1] [µmol/kg] | Number of surviving animals, treated ([1]; oral dose 0.032 mmol/kg) | Number of surviving animals, treated ([1]; oral dose 0.1 mmol/kg) | Number of surviving animals, treated ([1]; oral dose 0.16 mmol/kg) | Number of surviving animals, treated ([1]; oral dose 0.32 mmol/kg) | lowest active dose (protects against lethality induced by simultaneous ligature of the two carotids, from this dose upwards) [2] [mmol/kg] | Number of surviving animals, treated [2, 6] | Number of surviving animals, treated ([2]; intraperitoneal dose 0.64 mmol/kg) | LD50 [3] [mg/kg] | LD50 [4] [mg/kg] | toxicity (male mouse and male rat) | protective activity against aggressions of the central nervous system caused by hypoxias, cerebral ischemia, etc. [5] | Number of surviving animals, treated ([1]; oral dose 0.016 mmol/kg) | protective activity against hypoxia relative to the racemate ([1]; vs racemate (compound A)) [times] | Number of surviving animals, treated ([2]; intraperitoneal dose 0.1 mmol/kg) | Number of surviving animals, treated ([2]; intraperitoneal dose 0.16 mmol/kg) | protective activity against ischemia relative to the racemate ([2]; vs racemate (compound A)) [times] | toxic dose compared with active dose (male mouse and male rat; in vivo) |
| --- | --- | --- | --- | --- | --- | --- | --- | --- | --- | --- | --- | --- | --- | --- | --- | --- | --- | --- |
| CCC(C(N)=O)N1CCCC1=O (racemic) [A, Racemic alpha-ethyl-2-oxo-1-pyrrolidineacetamide, reference compound] | 320 | 16/60 | 7/60 | 12/60 | 30/60 | 0.64 | 8/29 | 21/30 | 1790 | 1500 | very low toxicity | possesses a protective activity | – | – | – | – | – | – |
| CC[C@@H](C(N)=O)N1CCCC1=O [B, (S)-alpha-ethyl-2-oxo-1-pyrrolidineacetamide] | 32 | 17/40 | 19/40 | 19/40 | 17/40 | 0.16 | 19/29 | – | 1080 | 1040 | very low toxicity | – | 11/40 | 10 | 14/29 | 14/30 | 4 | toxic dose is well above the active dose |

— patent US4837223A, “(S)-alpha-ethyl-2-oxo-1-pyrrolidineacetamide compositions” (UCB Societe Anonyme, priority 1984, dated 1989)
